Experimental data reported in patent publication US20100305326A1, “Chemical Fragment Screening and Assembly Utilizing Common Chemistry for NMR Probe Introduction and Fragment Linkage” (Marquette University, priority 2009, published 2010).

Test system: KCNQ channel protein
Experiment: 1D 13C half filtered 1H-1H NMR NOE fragment screening
Format: binding, rat
Settings: example of FIG. 3; mono- or di-methylated fragment A of DMP543; KCNQ protein solution
Source text: The above-described NMR fragment assembly methods may be utilized to identify ligands for the KCNQ potassium channel, which can be affinity-purified from rat brain extracts using an affinity column with ligands such as DMP543, XE991 or linopirdine, covalently attached to a resin. The KCNQ channel is a membrane-bound protein and is considered large for NMR studies. […] Indeed, such methods have been recently applied to G-protein coupled receptors by using difference spectra in order to remove potential spectral artifacts from NMR experiments from chemical fragments that penetrate the lipid layer (Assadi-Porter et al, 2008). An important variation to that procedure (and inter-ligand NOE studies, as in FIG. 1), which is employed as part of the presently disclosed methods is to chemically place a ^13C labeled methyl group as an NMR reported group (the “NMR probe”), analogous to the antenna in FIG. 1. […] These experiments can be done on a 400 MHz, 500 MHz, 600 MHz or higher field NMR spectrometer, ideally equipped with a cryoprobe (and cryocooled ^13C preamp). […]
As a control in these experiments, the measured NOE or saturation transfer signal might be of the sample (perhaps a tissue extract) that has had the protein target removed (KCNQ in this case), which could be done using an affinity column. […]

Cc1ccnc(F)c1 [2-fluoro-4-methylpyridine]
NOE signal between 13CH3 group of fragment A and methyl group of fragment B (binding within 5 angstroms): can show an NOE signal
